Reference: US6514959B2 (priority 1994, dated 2003)

Tested on: Plasmopara viticola
Assay: Action against Plasmopara viticola on vines (preventive leaf spray, Colby evaluation)
Format: in vivo
Conditions: for O Observed action: evaluation after 7 days
Description: Fungicides have a synergistic effect whenever the fungicidal action of the active ingredient combination is greater than the sum of the actions of the active ingredients when applied individually.
The action E to be expected for a given active ingredient combination, for example of two fungicides, obeys the so-called COLBY formula and can be calculated as follows (COLBY, L. R. “Calculating synergistic and antagonistic responses of herbicide combinations”. Weeds 15, pages 20-22, 1967) (LIMPEL et al., […] “Weeds control by . . . certain combinations”. Proc. NEWCL, Vol. 16, pp. 48-53):
(mg a.i./liter=milligrams of active ingredient per liter or a multiple thereof) X=% action by fungicide I at p mg a.i./liter
Y=% action by fungicide II at q mg a.i./liter
E=the expected action of fungicides I+II at a rate of application of p+q mg a.i./liter (additive action), then according to Colby: [formula]
If the action (O) actually observed is greater than the expected action, then the action of the combination is superadditive, i.e. there is a synergistic effect.
1) Action Against Plasmopara viticola on Vines
Small vine plants of the variety “Gutedel” are each grown in a plant-pot (diameter=6 cm) under greenhouse conditions and are sprayed in the two-leaf stage with an active ingredient mixture prepared from an emulsifiable concentrate. The following concentrations of active ingredient are each applied to four plants: […]
metalaxyl racemate: 2 mg and 6 mg a.i./liter;
R-metalaxyl (100%): 0.06 mg and 0.6 mg a.i./liter; mancozeb: 2 mg and 6 mg a.i./liter.
These dilutions are prepared in demineralised water immediately before the leaves are sprayed. In order to eliminate the effect of the gas phase of the metalaxyl in the vicinity, all the plants are separated from one another laterally by means of transparent plastics films and are kept in the dark for one day at 20-22° C. and about 100% relative humidity.
The entire surface of the leaves of the plants is then uniformly sprayed to drip point with a freshly prepared sporangia suspension (120 000/ml) of a strain of Plasmopara viticola that is sensitive to metalaxyl. The plants are then kept at 20-22° C. and about 100% relative humidity for 7 days under artificial daylight of 16 hours' duration. Evaluation of the infestation is then carried out. The Tables show in each case the average of four parallel sprayings. The expected action in the case of mixtures is calculated according to COLBY.
Level of action of racemic metalaxyl and R-metalaxyl in admixture with residual component mancozeb

[1] = single active ingredient 2 mg a.i./l, vines Gutedel, infection 1 day after spraying, average of four
[2] = single active ingredient 6 mg a.i./l, vines

| Compound | improvement of action when the R-enantiomer is used instead of racemic metalaxyl (in admixture with 2 mg or 6 mg of mancozeb, 0.06 mg R-metalaxyl corresponds to 2 mg racemic metalaxyl) | O Observed action (single active ingredient 0.06 mg a.i./l, vines) | O Observed action (single active ingredient 0.6 mg a.i./l, vines) | O Observed action [1] | O Observed action [2] |
| --- | --- | --- | --- | --- | --- |
| COCC(=O)N(c1c(C)cccc1C)[C@H](C)C(=O)OC (single isomer, unassigned) [R-enantiomer of metalaxyl, R-metalaxyl] | about 30 fold | 12% | 18% | – | – |
| COCC(=O)N(c1c(C)cccc1C)C(C)C(=O)OC (stereo not shown) [Metalaxyl, metalaxyl] | – | – | – | 12% | 24% |
| mancozeb | – | – | – | 0% | 20% |
